According to ChEMBL document CHEMBL4665917, “Optimization of Versatile Oxindoles as Selective PI3Kδ Inhibitors” (ACS Med Chem Lett, 2020):
Converted amounts (≈) assume the structure as drawn.

How the values were obtained:
[1] = Half life in Wistar-Han rat at 0.5 mg/kg, iv or 1 mg/kg, po; format: ADME, organism-based; settings: in vivo
[2] = Half life in Beagle dog at 0.5 mg/kg, iv or 1 mg/kg, po; format: ADME, organism-based, Canis lupus familiaris; settings: in vivo
[3] = Solubility of the compound at pH 7; format: physicochemical; settings: buffer
[4] = Clearance in Wistar-Han rat at 0.5 mg/kg, iv or 1 mg/kg, po; format: ADME, organism-based; settings: in vivo
[5] = Intrinsic clearance in Wistar-Han rat at 0.5 mg/kg, iv or 1 mg/kg, po; format: ADME, organism-based; settings: in vivo
[6] = Volume of distribution in Wistar-Han rat at 0.5 mg/kg, iv or 1 mg/kg, po; format: ADME, organism-based; settings: in vivo
[7] = Unbound volume of distribution in Wistar-Han rat at 0.5 mg/kg, iv or 1 mg/kg, po; format: ADME, organism-based; settings: in vivo
[8] = Clearance in Beagle dog at 0.5 mg/kg, iv or 1 mg/kg, po; format: ADME, organism-based, Canis lupus familiaris; settings: in vivo
[9] = Intrinsic clearance in Beagle dog at 0.5 mg/kg, iv or 1 mg/kg, po; format: ADME, organism-based, Canis lupus familiaris; settings: in vivo
[10] = Volume of distribution in Beagle dog at 0.5 mg/kg, iv or 1 mg/kg, po; format: ADME, organism-based, Canis lupus familiaris; settings: in vivo
[11] = Unbound volume of distribution in Beagle dog at 0.5 mg/kg, iv or 1 mg/kg, po; format: ADME, organism-based, Canis lupus familiaris; settings: in vivo
cells = settings: Homo sapiens, HeLa
[12] = Apparent permeability in pig LLC-PK1 cells; format: ADME, cell-based, Sus scrofa
[13] = Oral bioavailability in Wistar-Han rat at 1 mg/kg; format: ADME, organism-based; settings: in vivo
[14] = Oral bioavailability in Beagle dog at 1 mg/kg; format: ADME, organism-based, Canis lupus familiaris; settings: in vivo
[15] = target: Voltage-gated inwardly rectifying potassium channel KCNH2 (Homo sapiens, UniProt Q12809); assay: Inhibition of human ERG
Voltage-gated inwardly rectifying potassium channel KCNH2, sequence (Q12809 whole entry): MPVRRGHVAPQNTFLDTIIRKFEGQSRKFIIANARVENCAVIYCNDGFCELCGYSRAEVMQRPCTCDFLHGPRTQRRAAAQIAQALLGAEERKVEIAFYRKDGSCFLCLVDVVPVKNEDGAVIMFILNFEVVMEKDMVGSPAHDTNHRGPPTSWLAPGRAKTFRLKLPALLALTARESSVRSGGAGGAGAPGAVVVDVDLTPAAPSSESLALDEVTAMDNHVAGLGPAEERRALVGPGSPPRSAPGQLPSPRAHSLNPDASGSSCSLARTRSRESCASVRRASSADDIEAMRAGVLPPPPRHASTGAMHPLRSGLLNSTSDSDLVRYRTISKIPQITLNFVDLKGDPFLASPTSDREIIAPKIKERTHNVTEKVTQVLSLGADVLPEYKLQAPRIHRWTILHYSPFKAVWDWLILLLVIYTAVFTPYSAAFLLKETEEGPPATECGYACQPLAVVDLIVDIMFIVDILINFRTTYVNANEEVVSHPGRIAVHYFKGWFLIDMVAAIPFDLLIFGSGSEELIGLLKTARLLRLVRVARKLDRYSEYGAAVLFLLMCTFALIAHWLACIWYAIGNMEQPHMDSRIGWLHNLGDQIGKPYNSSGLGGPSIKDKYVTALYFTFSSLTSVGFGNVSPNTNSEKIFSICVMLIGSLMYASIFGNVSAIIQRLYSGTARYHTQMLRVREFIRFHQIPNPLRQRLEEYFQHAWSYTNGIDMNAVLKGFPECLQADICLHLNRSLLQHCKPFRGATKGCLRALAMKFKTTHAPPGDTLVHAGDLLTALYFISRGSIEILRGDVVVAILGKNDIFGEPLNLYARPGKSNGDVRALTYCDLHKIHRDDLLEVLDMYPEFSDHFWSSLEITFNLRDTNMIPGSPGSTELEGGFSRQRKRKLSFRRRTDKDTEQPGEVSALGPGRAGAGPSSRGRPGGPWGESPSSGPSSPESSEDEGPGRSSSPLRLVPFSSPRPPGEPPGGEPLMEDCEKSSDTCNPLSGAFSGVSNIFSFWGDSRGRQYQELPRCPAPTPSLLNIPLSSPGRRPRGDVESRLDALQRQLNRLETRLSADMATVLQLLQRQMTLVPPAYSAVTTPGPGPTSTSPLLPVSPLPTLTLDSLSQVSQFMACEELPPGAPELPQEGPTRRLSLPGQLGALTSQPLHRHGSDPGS

[16] = target: Sodium channel protein type 5 subunit alpha (Homo sapiens, UniProt Q14524); assay: Inhibition of Nav1.5 (unknown origin)
Sodium channel protein type 5 subunit alpha, sequence (Q14524 whole entry): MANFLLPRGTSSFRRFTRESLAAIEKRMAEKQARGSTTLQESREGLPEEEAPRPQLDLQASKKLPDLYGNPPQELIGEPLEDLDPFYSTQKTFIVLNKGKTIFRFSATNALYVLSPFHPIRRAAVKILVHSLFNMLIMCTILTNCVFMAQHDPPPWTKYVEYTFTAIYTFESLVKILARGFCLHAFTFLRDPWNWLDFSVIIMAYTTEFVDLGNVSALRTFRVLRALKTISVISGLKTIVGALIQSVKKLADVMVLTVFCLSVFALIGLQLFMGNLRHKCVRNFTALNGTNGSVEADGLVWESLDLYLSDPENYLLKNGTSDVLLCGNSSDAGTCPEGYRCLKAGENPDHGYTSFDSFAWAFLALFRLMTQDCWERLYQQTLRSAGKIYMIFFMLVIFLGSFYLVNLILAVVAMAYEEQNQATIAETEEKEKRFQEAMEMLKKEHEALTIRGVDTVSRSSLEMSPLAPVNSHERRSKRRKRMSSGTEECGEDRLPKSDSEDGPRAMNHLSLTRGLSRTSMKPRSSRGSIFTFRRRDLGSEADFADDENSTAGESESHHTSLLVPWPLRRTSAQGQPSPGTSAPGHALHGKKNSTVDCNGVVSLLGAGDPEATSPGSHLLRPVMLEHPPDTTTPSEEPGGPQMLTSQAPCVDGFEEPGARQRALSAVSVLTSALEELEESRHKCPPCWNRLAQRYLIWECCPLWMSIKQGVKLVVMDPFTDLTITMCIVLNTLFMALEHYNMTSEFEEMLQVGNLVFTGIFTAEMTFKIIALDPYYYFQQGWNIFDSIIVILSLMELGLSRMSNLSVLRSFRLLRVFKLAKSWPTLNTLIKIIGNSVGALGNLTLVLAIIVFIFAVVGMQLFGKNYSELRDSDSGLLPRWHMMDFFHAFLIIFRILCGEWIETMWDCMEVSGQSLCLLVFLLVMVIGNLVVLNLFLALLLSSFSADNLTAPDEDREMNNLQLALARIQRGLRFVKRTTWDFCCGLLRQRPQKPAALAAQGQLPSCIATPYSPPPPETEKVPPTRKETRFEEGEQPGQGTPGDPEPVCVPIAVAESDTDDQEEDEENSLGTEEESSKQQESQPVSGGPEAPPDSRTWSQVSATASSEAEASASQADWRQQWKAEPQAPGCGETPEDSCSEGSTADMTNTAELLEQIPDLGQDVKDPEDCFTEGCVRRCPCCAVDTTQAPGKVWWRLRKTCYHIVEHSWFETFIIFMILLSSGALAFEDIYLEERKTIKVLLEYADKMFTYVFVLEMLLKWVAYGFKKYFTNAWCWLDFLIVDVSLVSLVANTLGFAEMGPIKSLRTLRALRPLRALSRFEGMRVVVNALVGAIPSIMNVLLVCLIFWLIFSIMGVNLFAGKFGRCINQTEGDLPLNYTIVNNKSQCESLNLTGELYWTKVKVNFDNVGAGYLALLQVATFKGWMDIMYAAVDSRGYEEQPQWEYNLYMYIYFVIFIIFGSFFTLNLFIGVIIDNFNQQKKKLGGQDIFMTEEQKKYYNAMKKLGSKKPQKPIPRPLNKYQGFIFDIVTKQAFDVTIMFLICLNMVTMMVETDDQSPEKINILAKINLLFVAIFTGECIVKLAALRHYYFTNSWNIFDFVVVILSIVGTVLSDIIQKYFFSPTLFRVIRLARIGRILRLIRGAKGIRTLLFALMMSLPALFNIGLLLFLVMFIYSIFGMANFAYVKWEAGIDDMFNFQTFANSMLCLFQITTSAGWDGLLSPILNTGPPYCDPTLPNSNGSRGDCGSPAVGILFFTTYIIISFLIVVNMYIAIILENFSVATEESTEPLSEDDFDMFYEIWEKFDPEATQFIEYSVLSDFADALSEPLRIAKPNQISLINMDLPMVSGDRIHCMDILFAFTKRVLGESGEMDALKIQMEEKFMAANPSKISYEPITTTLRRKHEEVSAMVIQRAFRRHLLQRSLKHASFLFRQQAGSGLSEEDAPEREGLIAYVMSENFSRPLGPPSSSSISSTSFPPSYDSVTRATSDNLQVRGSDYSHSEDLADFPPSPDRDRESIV

[17] = target: Voltage-dependent L-type calcium channel subunit alpha-1C (Homo sapiens, UniProt Q13936); assay: Inhibition of Cav1.2 (unknown origin)
Cytochrome P450 2C8 = target: T1, Cytochrome P450 2C8 (Homo sapiens, UniProt P10632); assay: Inhibition of CYP2C8 (unknown origin); format: ADME
T1 sequence (P10632 whole entry): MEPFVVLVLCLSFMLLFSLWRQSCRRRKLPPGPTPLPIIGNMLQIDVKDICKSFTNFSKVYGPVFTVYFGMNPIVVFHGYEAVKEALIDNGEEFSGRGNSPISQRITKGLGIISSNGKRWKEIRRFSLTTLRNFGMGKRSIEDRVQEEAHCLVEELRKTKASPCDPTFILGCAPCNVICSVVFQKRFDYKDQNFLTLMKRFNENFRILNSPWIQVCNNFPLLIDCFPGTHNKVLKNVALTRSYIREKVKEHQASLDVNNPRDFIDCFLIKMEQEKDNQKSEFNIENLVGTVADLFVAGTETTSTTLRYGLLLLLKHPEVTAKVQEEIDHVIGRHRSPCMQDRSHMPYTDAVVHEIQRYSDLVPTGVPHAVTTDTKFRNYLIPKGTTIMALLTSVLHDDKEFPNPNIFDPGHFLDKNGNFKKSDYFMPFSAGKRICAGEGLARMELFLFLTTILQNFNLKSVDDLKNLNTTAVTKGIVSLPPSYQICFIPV

Cytochrome P450 2C9 = Cytochrome P450 2C9 (Homo sapiens, UniProt P11712); assay: Inhibition of CYP2C9 (unknown origin); format: ADME
Cytochrome P450 2C9, sequence (P11712 whole entry): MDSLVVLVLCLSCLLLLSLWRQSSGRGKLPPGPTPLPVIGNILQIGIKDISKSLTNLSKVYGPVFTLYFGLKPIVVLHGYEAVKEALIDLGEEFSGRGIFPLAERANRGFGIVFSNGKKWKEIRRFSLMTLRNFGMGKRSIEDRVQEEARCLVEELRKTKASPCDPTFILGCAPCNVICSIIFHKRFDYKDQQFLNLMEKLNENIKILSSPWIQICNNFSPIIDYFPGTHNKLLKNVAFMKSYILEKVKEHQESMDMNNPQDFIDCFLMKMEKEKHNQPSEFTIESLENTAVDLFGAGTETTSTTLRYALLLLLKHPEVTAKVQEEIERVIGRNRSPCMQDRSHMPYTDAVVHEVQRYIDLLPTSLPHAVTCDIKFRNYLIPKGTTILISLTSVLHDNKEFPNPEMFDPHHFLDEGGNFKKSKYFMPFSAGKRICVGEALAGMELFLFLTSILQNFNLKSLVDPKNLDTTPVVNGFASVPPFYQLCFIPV

Cytochrome P450 2D6 = Cytochrome P450 2D6 (Homo sapiens, UniProt P10635); assay: Inhibition of CYP2D6 (unknown origin); format: ADME
Cytochrome P450 2D6, sequence (P10635 whole entry): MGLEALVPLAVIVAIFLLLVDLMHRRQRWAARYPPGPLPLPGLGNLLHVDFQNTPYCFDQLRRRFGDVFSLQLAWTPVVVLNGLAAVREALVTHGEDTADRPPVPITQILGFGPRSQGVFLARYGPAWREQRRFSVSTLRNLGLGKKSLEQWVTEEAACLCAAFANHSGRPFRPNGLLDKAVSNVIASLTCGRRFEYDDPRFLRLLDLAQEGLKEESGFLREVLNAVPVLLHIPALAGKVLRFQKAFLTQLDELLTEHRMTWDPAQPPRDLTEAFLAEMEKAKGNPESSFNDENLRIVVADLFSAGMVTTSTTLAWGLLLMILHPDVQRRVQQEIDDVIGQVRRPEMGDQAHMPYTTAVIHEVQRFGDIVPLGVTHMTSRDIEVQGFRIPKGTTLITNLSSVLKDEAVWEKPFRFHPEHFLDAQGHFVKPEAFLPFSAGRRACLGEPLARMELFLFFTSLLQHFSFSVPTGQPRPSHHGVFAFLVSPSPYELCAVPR

Cytochrome P450 3A4 = Cytochrome P450 3A4 (Homo sapiens, UniProt P08684); assay: Inhibition of CYP3A4 (unknown origin); format: ADME
Cytochrome P450 3A4, sequence (P08684 whole entry): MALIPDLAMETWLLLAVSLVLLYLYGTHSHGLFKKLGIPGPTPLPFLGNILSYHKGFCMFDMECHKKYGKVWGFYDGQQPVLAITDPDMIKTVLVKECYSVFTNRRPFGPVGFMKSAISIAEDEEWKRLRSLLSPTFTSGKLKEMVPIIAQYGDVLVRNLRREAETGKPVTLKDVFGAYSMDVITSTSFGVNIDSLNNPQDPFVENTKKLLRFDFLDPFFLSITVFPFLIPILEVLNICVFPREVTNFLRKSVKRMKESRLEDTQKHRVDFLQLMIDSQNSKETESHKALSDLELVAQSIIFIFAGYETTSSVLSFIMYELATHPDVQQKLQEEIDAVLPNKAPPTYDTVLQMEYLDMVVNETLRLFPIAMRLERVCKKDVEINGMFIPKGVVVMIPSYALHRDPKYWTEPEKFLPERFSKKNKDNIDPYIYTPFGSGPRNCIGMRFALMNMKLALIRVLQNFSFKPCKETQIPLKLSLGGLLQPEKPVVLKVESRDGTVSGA

[18] = AUC in rat at 200 mg/kg; format: ADME, organism-based; design: dose 200 mg/kg; settings: in vivo
Homo sapiens = species: Homo sapiens; assay: Selectivity index, ratio of IC50 for Inhibition of N-terminal His6 tagged recombinant full-length human PI3Kalpha/human recombinant full length p85alpha expressed in baculovirus infected Sf21 cells to IC50 for Inhibition of N-terminal His6 tagged recombinant full-length human PI3Kdelta/human recombinant full length p85alpha expressed in baculovirus infected Sf21 cells
[19] = AUC in rat at 100 mg/kg; format: ADME, organism-based; design: dose 100 mg/kg; settings: in vivo

SMILES | half-life [1] | half-life [2] | solubility [3] | clearance [4] | CL [5] | Vd [6] | Vdu [7] | clearance [8] | CL [9] | Vd [10] | Vdu [11] | IC50 (cells) | Papp [12] | bioavailability [13] | bioavailability [14] | further results
Cc1ncc(-c2nc3c(-c4cnc5c(c4)[C@](C)(N[C@H]4CCOC4)C(=O)N5)ncnc3n2C)cn1 | 1.1 h | 2 h | 140 µM (≈ 64 µg/mL) | 58 mL/min/kg | 240 mL/min/kg | 2.4 L/kg | 3.1 L/kg | 1.9 mL/min/kg | 3 mL/min/kg | 0.2 L/kg | 0.3 L/kg | 8.2 µM | – | – | – | –
CCn1c(-c2cnc(C)nc2)nc2c(-c3cnc4c(c3)[C@](C)(N[C@H]3CCOC3)C(=O)N4)ncnc21 | 3 h | 3.4 h | 150 µM (≈ 70.7 µg/mL) | – | – | 3.8 L/kg | 4.9 L/kg | – | – | 1.2 L/kg | 1.6 L/kg | > 10 µM | 5.7 ×10⁻⁶ cm/s | 33% | 91% | –
CCn1c(-c2cnc(C)nc2)nc2c(-c3ccc4c(c3)[C@@]3(CCCN3C(=O)C3CC3)C(=O)N4C)ncnc21 | 1.1 h | 3 h | 130 µM (≈ 66.1 µg/mL) | – | – | 0.7 L/kg | 3.8 L/kg | – | – | 0.5 L/kg | 1 L/kg | 8.5 µM | 32 ×10⁻⁶ cm/s | 57% | 99% | –
CCn1c(-c2cnc(C)nc2)nc2c(-c3ccc4c(c3)[C@](C)(NCC(C)(F)F)C(=O)N4)ncnc21 | 1.9 h | 1.1 h | 120 µM (≈ 57.4 µg/mL) | – | – | 3.3 L/kg | 6.9 L/kg | – | – | 1.7 L/kg | 3.9 L/kg | – | – | – | – | –
Cc1ncc(-c2nc3c(-c4ccc5c(c4)[C@@]4(CCCN4C(=O)C4CC4)C(=O)N5C)ncnc3n2C)cn1 | 1.4 h | 2 h | 140 µM (≈ 69.2 µg/mL) | 22 mL/min/kg | 130 mL/min/kg | 1.4 L/kg | 6.1 L/kg | 6.1 mL/min/kg | 14 mL/min/kg | 0.8 L/kg | 1.5 L/kg | 9.1 µM | 31 ×10⁻⁶ cm/s | 100% | 82% | IC50 [15]: > 30 µM; IC50 [16]: > 30 µM; IC50 [17]: > 30 µM; IC50 (Cytochrome P450 2C8): > 50 µM; IC50 (Cytochrome P450 2C9): > 50 µM; IC50 (Cytochrome P450 2D6): > 50 µM; IC50 (Cytochrome P450 3A4): > 50 µM; AUC [18]: 490 µM·h
CCn1ncc(-c2nc3c(-c4ccc5c(c4)[C@](C)(CC4CC4)C(=O)N5)ncnc3n2C)c1C | – | – | – | – | – | – | – | – | – | – | – | 0.017 µM | – | – | – | –
CCn1c(-c2cnc(C)nc2)nc2c(-c3ccc4c(c3)[C@](C)(NC3CCC3)C(=O)N4)ncnc21 | 0.6 h | – | 130 µM (≈ 59.1 µg/mL) | 66 mL/min/kg | 930 mL/min/kg | 2.4 L/kg | 7.3 L/kg | – | – | – | – | – | 30 ×10⁻⁶ cm/s | – | – | –
CCn1c(-c2cnc(C)nc2)nc2c(-c3ccc4c(c3)[C@](C)(N[C@H]3CCOC3)C(=O)N4)ncnc21 | 1.4 h | 1.6 h | 180 µM (≈ 84.7 µg/mL) | 44 mL/min/kg | 160 mL/min/kg | 3.7 L/kg | 6.5 L/kg | 32 mL/min/kg | – | 4.2 L/kg | 6.5 L/kg | – | 14 ×10⁻⁶ cm/s | 14% | – | –
CCn1c(-c2cnc(C)nc2)nc2c(-c3ccc4c(c3)[C@@]3(CCCN3C(C)C)C(=O)N4)ncnc21 | 0.6 h | 1 h | 56 µM (≈ 26.2 µg/mL) | – | – | 3.1 L/kg | 14 L/kg | – | – | 2.2 L/kg | 11 L/kg | – | – | – | – | –
CCn1c(-c2cnc(C)nc2)nc2c(-c3cnc4c(c3)[C@](C)(N3CC(C)(OC)C3)C(=O)N4)ncnc21 | 2.8 h | 2 h | 160 µM (≈ 77.7 µg/mL) | 8.1 mL/min/kg | 18 mL/min/kg | 1.7 L/kg | 3.3 L/kg | 7.4 mL/min/kg | 16 mL/min/kg | 1.3 L/kg | 2.1 L/kg | – | 24 ×10⁻⁶ cm/s | – | – | –
CCn1ncc(-c2nc3c(N4CCC(n5c(=O)[nH]c6ncccc65)CC4)ncnc3n2C)c1C | – | – | – | – | – | – | – | – | – | – | – | – | – | – | – | Ratio IC50 (Homo sapiens): 71
CCn1c(-c2cnc(C)nc2)nc2c(-c3ccc4c(c3)[C@](C)(CC3CCO3)C(=O)N4)ncnc21 (stereo not given in full) | 1 h | 1 h | – | 27 mL/min/kg | 99 mL/min/kg | 2.4 L/kg | 6 L/kg | 24 mL/min/kg | 250 mL/min/kg | 1.7 L/kg | 3.5 L/kg | – | – | – | – | –
CCn1c(-c2cnc(C)nc2)nc2c(-c3cnc4c(c3)[C@](C)(NC3CCC3)C(=O)N4)ncnc21 | 3 h | – | 140 µM (≈ 63.8 µg/mL) | – | – | 2.1 L/kg | 3.1 L/kg | – | – | – | – | – | 25 ×10⁻⁶ cm/s | – | – | –
Cc1ncc(-c2nc3c(-c4ccc5c(c4)[C@@]4(CCCN4C(=O)C4CC4)C(=O)N5)ncnc3n2C)cn1 | 0.6 h | 1.3 h | 130 µM (≈ 62.5 µg/mL) | 49 mL/min/kg | 290 mL/min/kg | 1.9 L/kg | 4.6 L/kg | 9.6 mL/min/kg | 27 mL/min/kg | 1.4 L/kg | 2.7 L/kg | 10 µM | 9 ×10⁻⁶ cm/s | – | – | –
CCn1c(-c2cnc(C)nc2)nc2c(-c3cnc4c(c3)[C@](C)(NCC(C)(C)F)C(=O)N4)ncnc21 | 2.5 h | 9.3 h | 115 µM (≈ 54.7 µg/mL) | 12 mL/min/kg | 29 mL/min/kg | 2.4 L/kg | 5 L/kg | 2.5 mL/min/kg | 6 mL/min/kg | 1.4 L/kg | 3.3 L/kg | – | 24 ×10⁻⁶ cm/s | 61% | 100% | AUC [19]: 390 µM·h
Cn1cnc2c(-c3ccc4c(c3)[C@](C)(CC3CC3)C(=O)N4)ncnc21 | – | – | – | – | – | – | – | – | – | – | – | 3.1 µM | – | – | – | –
CCn1c(-c2cnc(C)nc2)nc2c(-c3ccc4c(c3)[C@](C)(N3CC(C)(OC)C3)C(=O)N4)ncnc21 | 0.6 h | 1.8 h | 120 µM (≈ 58.1 µg/mL) | – | – | 1.9 L/kg | 6.3 L/kg | – | – | 2.8 L/kg | 6.5 L/kg | – | 27 ×10⁻⁶ cm/s | 28% | – | –
CCn1c(-c2cnc(C)nc2)nc2c(-c3ccc4c(c3)[C@@]3(CCCN3C(=O)C3CC3)C(=O)N4)ncnc21 | 0.5 h | 0.5 h | 34 µM (≈ 16.8 µg/mL) | – | – | 1.9 L/kg | 5.5 L/kg | – | – | 1.5 L/kg | 3.8 L/kg | – | 10 ×10⁻⁶ cm/s | 10% | 78% | –
CCn1c(-c2cnc(C)nc2)nc2c(-c3ccc4c(c3)[C@](C)(NCC(C)(C)F)C(=O)N4)ncnc21 | 1.6 h | 1.4 h | 130 µM (≈ 61.7 µg/mL) | 28 mL/min/kg | 89 mL/min/kg | 3 L/kg | 6.3 L/kg | 39 mL/min/kg | – | 2.9 L/kg | 8.7 L/kg | – | 27 ×10⁻⁶ cm/s | 58% | 25% | –
